Literature values as cited in US20200281134A1, “GROWTH SUBSTRATE PRODUCT” (ROCKWOOL International A/S, priority 2015, published 2020).

Settings: 3-hydroxy group

SMILES: O=C1O[C@H]([C@@H](O)CO)C(O)=C1O [ascorbic acid, Ascorbic acid]
- pKa: 4.04
